This test addresses T1, human neutrophil elastase (HNE) (Homo sapiens, UniProt P08246).
T1 construct: purchased Sigma E8140
T1 sequence (P08246 30-247 limits assumed): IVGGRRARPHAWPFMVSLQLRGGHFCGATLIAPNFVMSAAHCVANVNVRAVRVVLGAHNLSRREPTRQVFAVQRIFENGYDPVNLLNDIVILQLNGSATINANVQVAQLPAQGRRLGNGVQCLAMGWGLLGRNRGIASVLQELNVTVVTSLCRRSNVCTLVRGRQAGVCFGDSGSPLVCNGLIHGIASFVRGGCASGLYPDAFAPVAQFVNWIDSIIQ
Description: HNE enzyme activity assay (fluorogenic peptide substrate MeOSuc-Ala-Ala-Pro-Val-AMC). The format is biochemical. As to conditions: human leukocyte elastase 0.00072 U/mL, substrate 100 μM, 25° C., 30 minutes, pH 7.5; at least two separate experiments; read-out: FINE inhibition (HNE enzyme inhibition, IC50 values). How it is done:
Compounds of this invention were tested for potency in a human neutrophil elastase (HNE) enzyme activity assay.
Assays were performed in 96-well plates in a total assay volume of 100 μL. The final concentration of elastase enzyme (human leukocyte elastase, Sigma E8140) was 0.00072 U/mL. The peptide substrate (MeOSuc-Ala-Ala-Pro-Val-AMC, Calbiochem #324740) was used at a final concentration of 100 μM. The final concentration of DMSO was 1% in the assay buffer (0.05M Tris.HCl, 0.1M NaCl, 0.1M CaCl2, 0.0005% brij-35, pH 7.5). The enzymatic reaction was started by addition of the enzyme and incubated at 25° C. for 30 minutes. After incubation, the reaction was stopped by addition of soybean trypsin inhibitor (Sigma T9003) at a final concentration of 50 μg/well. Fluorescence was measured using a Molecular Devices fluorescence plate reader using 380 nm excitation and 460 nm emission wavelengths.
A dose response to each compound was performed and the effect of compound in each experiment was expressed as a percentage inhibition of the control enzyme fluorescence. Dose response curves were plotted and compound potency (IC50) was determined. Compounds were tested in at least two separate experiments.

Regarding `CCCCC(=O)n1c(-c2ccnn2-c2ccc(C#N)cc2)c(C)n(-c2cccc(C(F)(F)F)c2)c1=O` [Example 19, 4-(5-{5-Methyl-2-oxo-3-pentanoyl-1-[3-(trifluoromethyl)phenyl]-2,3-dihydro-1H-imidazol-4-yl}-1H-pyrazol-1-yl)benzonitrile], the IC50 is less than 1 nM.
On to `Cc1c(-c2ccnn2-c2ccc(C#N)cc2)n(CC(=O)OC(C)(C)C)c(=O)n1-c1cccc(C(F)(F)F)c1` [Example 20, tert-Butyl-{5-[1-(4-cyanophenyl)-1H-pyrazol-5-yl]-4-methyl-2-oxo-3-[3-(trifluoromethyl)phenyl]-2,3-dihydro-1H-imidazol-1-yl}acetate], for which the IC50 lay within 10 to 50 nM.
With `CCN(C)C(=O)n1c(-c2ccnn2-c2ccc(C#N)cc2)c(C)n(-c2cccc(C(F)(F)F)c2)c1=O` [Example 21, 5-[1-(4-Cyanophenyl)-1H-pyrazol-5-yl]-N-ethyl-N,4-dimethyl-2-oxo-3-[3-(trifluoromethyl)phenyl]-2,3-dihydro-1H-imidazole-1-carboxamide], the IC50 lay in the range of 10 to 50 nM.
As for `Cc1c(-c2ccnn2-c2ccc(C#N)cc2)n(CC(=O)O)c(=O)n1-c1cccc(C(F)(F)F)c1` [Example 22, {5-[1-(4-Cyanophenyl)-1H-pyrazol-5-yl]-4-methyl-2-oxo-3-[3-(trifluoromethyl)phenyl]-2,3-dihydro-1H-imidazol-1-yl}acetic acid], the IC50 is 10 to 50 nM.
Under `CNC(=O)Cn1c(-c2ccnn2-c2ccc(C#N)cc2)c(C)n(-c2cccc(C(F)(F)F)c2)c1=O` [Example 23, 2-{5-[1-(4-Cyanophenyl)-1H-pyrazol-5-yl]-4-methyl-2-oxo-3-[3-(trifluoromethyl)phenyl]-2,3-dihydro-1H-imidazol-1-yl}-N-methylacetamide] stands 10 to 50 nM; under `Cc1c(-c2ccnn2-c2ccc(C#N)cc2)n(C(=O)NCCC[N+](C)(C)C)c(=O)n1-c1cccc(C(F)(F)F)c1` [Example 24, Benzenesulfonate 3-[({5-[1-(4-cyanophenyl)-1H-pyrazol-5-yl]-4-methyl-2-oxo-3-[3-(trifluoromethyl)phenyl]-2,3-dihydro-1H-imidazol-1-yl}carbonyl)amino]-N,N,N-trimethylpropan-1-aminium], 1 to 10 nM; under `Cc1c(-c2ccnn2-c2ccc(C#N)cc2)n(C(=O)NCC[N+](C)(C)C)c(=O)n1-c1cccc(C(F)(F)F)c1` [Example 25, Benzenesulfonate 2-[({5-[1-(4-cyanophenyl)-1H-pyrazol-5-yl]-4-methyl-2-oxo-3-[3-(trifluoromethyl)phenyl]-2,3-dihydro-1H-imidazol-1-yl}carbonyl)amino]-N,N,N-trimethylethanaminium], 1 to 10 nM.
Then `CCCCn1c(-c2ccnn2-c2ccc(C#N)cc2)c(C)n(-c2cccc(C(F)(F)F)c2)c1=O` [Example 26, 4-(5-{3-Butyl-5-methyl-2-oxo-1-[3-(trifluoromethyl)phenyl]-2,3-dihydro-1H-imidazol-4-yl}-1H-pyrazol-1-yl)benzonitrile], with 1 to 10 nM; and `Cc1c(-c2ccnn2-c2ccc(C#N)cc2)n(S(C)(=O)=O)c(=O)n1-c1cccc(C(F)(F)F)c1` [Example 27, 4-(5-{5-Methyl-3-(methylsulfonyl)-2-oxo-1-[3-(trifluoromethyl)phenyl]-2,3-dihydro-1H-imidazol-4-yl}-1H-pyrazol-1-yl)benzonitrile], with less than 1 nM.
Then `CCCC(C)n1c(-c2ccnn2-c2ccc(C#N)cc2)c(C)n(-c2cccc(C(F)(F)F)c2)c1=O` (centres unmarked) [Example 28, 4-{5-[5-Methyl-3-(1-methyl-butyl)-2-oxo-1-(3-trifluoromethyl-phenyl)-2,3-dihydro-1H-imidazol-4-yl]pyrazol-1-yl}-benzonitrile], with 1 to 10 nM.
Consider `Cc1c(-c2ccnn2-c2ccc(C#N)cc2)n(CCN(C)C)c(=O)n1-c1cccc(C(F)(F)F)c1` [Example 29, 4-{5-[3-(2-Dimethylamino-ethyl)-5-methyl-2-oxo-1-(3-trifluoromethylphenyl)-2,3-dihydro-1H-imidazol-4-yl]-pyrazol-1-yl}-benzonitrile], for which the IC50 lay within 1 to 10 nM.

For orientation: IC50 means the concentration that inhibits the measured activity by half.

The values above are taken from patent publication US9409870B2, “Compounds” (CHIESI FARMACEUTICI S.p.A., priority 2014, dated 2016).
